# Experimental data as given in ChEMBL document CHEMBL1150051, “Antiviral (RNA) activity of selected Amaryllidaceae isoquinoline constituents and synthesis of related substances” (J Nat Prod, 1992).
# Activity calls are given as the source filed them. The calls are words filed in the database; no cut-off is given here.
# Key:
# [1] = tested on: Japanese encephalitis virus; experiment: Antiviral activity against Japanese encephalitis virus Beijing infected in low viral dose challenge C57BL/6 mouse model assessed as survival rate at 4 mg/kg/day, sc once daily for 7 days administered 1 day before infection measured after 28 days post infection relative to control; format: functional; conditions: route subcutaneous
# [2] = tested on: Japanese encephalitis virus; experiment: Antiviral activity against Japanese encephalitis virus Beijing infected in low viral dose challenge C57BL/6 mouse model assessed as survival rate at 6 mg/kg/day, sc once daily for 7 days administered 1 day before infection measured after 28 days post infection relative to control; format: functional; conditions: route subcutaneous
# [3] = tested on: Japanese encephalitis virus; experiment: Antiviral activity against Japanese encephalitis virus Beijing infected in high viral dose challenge C57BL/6 mouse model assessed as survival rate at 6 mg/kg/day, ip twice daily for 9 days administered 1 day before infection measured after 28 days post infection relative to control; format: functional; conditions: route intraperitoneal
# [4] = tested on: Japanese encephalitis virus; experiment: Antiviral activity against Japanese encephalitis virus Beijing infected in low viral dose challenge C57BL/6 mouse model assessed as average day of death at 4 mg/kg/day, sc once daily for 7 days administered 1 day before infection measured after 28 days post infection; format: functional; conditions: route subcutaneous
# [5] = tested on: Japanese encephalitis virus; experiment: Antiviral activity against Japanese encephalitis virus Beijing infected in low viral dose challenge C57BL/6 mouse model assessed as average day of death at 2 mg/kg/day, sc once daily for 7 days administered 1 day before infection measured after 28 days post infection; format: functional; conditions: route subcutaneous
# [6] = tested on: Japanese encephalitis virus; experiment: Antiviral activity against Japanese encephalitis virus Beijing infected in low viral dose challenge C57BL/6 mouse model assessed as inhibition of virus-induced mortality at 4 mg/kg/day, sc once daily for 7 days administered 1 day before infection measured after 28 days post infection; format: functional, organism-based
# Mus musculus [7] = experiment: Toxicity in C57BL/6 mouse assessed as change in body weight at 8 mg/kg/day, ip twice daily for 9 days administered 1 day before infection measured after 28 days post infection; format: organism-based; design: route intraperitoneal; conditions: in vivo, 672 h
# Mus musculus [8] = experiment: Toxicity in C57BL/6 mouse assessed as change in body weight at 6 mg/kg/day, ip twice daily for 9 days administered 1 day before infection measured after 28 days post infection; format: organism-based; design: route intraperitoneal; conditions: in vivo, 672 h
# Mus musculus [9] = experiment: Toxicity in C57BL/6 mouse assessed as change in body weight at 5 mg/kg/day, ip twice daily for 9 days administered 1 day before infection measured after 28 days post infection; format: organism-based; design: route intraperitoneal; conditions: in vivo, 672 h
# Mus musculus [10] = experiment: Toxicity in C57BL/6 mouse assessed as change in body weight at 4 mg/kg/day, ip twice daily for 9 days administered 1 day before infection measured after 28 days post infection; format: organism-based; design: route intraperitoneal; conditions: in vivo, 672 h
# Mus musculus [11] = experiment: Toxicity in C57BL/6 mouse assessed as change in body weight at 3 mg/kg/day, ip twice daily for 9 days administered 1 day before infection measured after 28 days post infection; format: organism-based; design: route intraperitoneal; conditions: in vivo, 672 h
# Mus musculus [12] = experiment: Toxicity in C57BL/6 mouse assessed as change in body weight at 2 mg/kg/day, ip twice daily for 9 days administered 1 day before infection measured after 28 days post infection; format: organism-based; design: route intraperitoneal; conditions: in vivo, 672 h
# Mus musculus [13] = experiment: Toxicity in C57BL/6 mouse assessed as mortality at 4 mg/kg/day, ip twice daily for 9 days; format: organism-based; design: route intraperitoneal; conditions: in vivo, 216 h
# Mus musculus [14] = experiment: Toxicity in C57BL/6 mouse assessed as mortality at 3 mg/kg/day, ip twice daily for 9 days; format: organism-based; design: route intraperitoneal; conditions: in vivo, 216 h
# Mus musculus [15] = experiment: Toxicity in C57BL/6 mouse assessed as mortality at 2 mg/kg/day, ip twice daily for 9 days; format: organism-based; design: route intraperitoneal; conditions: in vivo, 216 h
# [16] = tested on: Japanese encephalitis virus; experiment: Antiviral activity against Japanese encephalitis virus Beijing infected in high viral dose challenge C57BL/6 mouse model assessed as average day of death at 8 mg/kg/day, ip twice daily for 9 days administered 1 day before infection measured after 28 days post infection; format: functional; conditions: route intraperitoneal
# [17] = tested on: Japanese encephalitis virus; experiment: Antiviral activity against Japanese encephalitis virus Beijing infected in high viral dose challenge C57BL/6 mouse model assessed as average day of death at 6 mg/kg/day, ip twice daily for 9 days administered 1 day before infection measured after 28 days post infection; format: functional; conditions: route intraperitoneal
# [18] = tested on: Japanese encephalitis virus; experiment: Antiviral activity against Japanese encephalitis virus Beijing infected in high viral dose challenge C57BL/6 mouse model assessed as average day of death at 5 mg/kg/day, ip twice daily for 9 days administered 1 day before infection measured after 28 days post infection; format: functional; conditions: route intraperitoneal
# [19] = tested on: Japanese encephalitis virus; experiment: Antiviral activity against Japanese encephalitis virus Beijing infected in high viral dose challenge C57BL/6 mouse model assessed as average day of death at 4 mg/kg/day, ip twice daily for 9 days administered 1 day before infection measured after 28 days post infection; format: functional; conditions: route intraperitoneal
# [20] = tested on: Japanese encephalitis virus; experiment: Antiviral activity against Japanese encephalitis virus Beijing infected in high viral dose challenge C57BL/6 mouse model assessed as average day of death at 3 mg/kg/day, ip twice daily for 9 days administered 1 day before infection measured after 28 days post infection; format: functional; conditions: route intraperitoneal
# [21] = tested on: Japanese encephalitis virus; experiment: Antiviral activity against Japanese encephalitis virus Beijing infected in high viral dose challenge C57BL/6 mouse model assessed as average day of death at 2 mg/kg/day, ip twice daily for 9 days administered 1 day before infection measured after 28 days post infection; format: functional; conditions: route intraperitoneal
# [22] = tested on: Japanese encephalitis virus; experiment: Antiviral activity against Japanese encephalitis virus Beijing infected in high viral dose challenge C57BL/6 mouse model assessed inhibition of virus-induced mortality at 4 mg/kg/day, ip twice daily for 9 days administered 1 day before infection measured after 28 days post infection; format: functional, organism-based
# Mus musculus [23] = experiment: Toxicity in C57BL/6 mouse assessed as mortality at 2 mg/kg/day, sc once daily for 7 days; format: organism-based; design: route subcutaneous; conditions: in vivo, 168 h
# Mus musculus [24] = experiment: Toxicity in C57BL/6 mouse assessed as mortality at 6 mg/kg/day, sc once daily for 7 days; format: organism-based; design: route subcutaneous; conditions: in vivo, 168 h
# [25] = tested on: Japanese encephalitis virus; experiment: Antiviral activity against Japanese encephalitis virus Nakayama infected in african green monkey Vero cells assessed as inhibition of virus-induced cytopathic effect by MTT assay; format: functional, organism-based; conditions: Japanese encephalitis virus, Nakayama, Vero; read-out: IC50
# [26] = Therapeutic index, ratio of TC50 for african green monkey Vero cells to IC50 for Japanese encephalitis virus Nakayama; format: cell-based; conditions: read-out: TI
# Yellow fever virus = experiment: Antiviral activity against Yellow fever virus Ashibi infected in african green monkey Vero cells assessed as inhibition of virus-induced cytopathic effect by MTT assay; format: functional, organism-based; conditions: Yellow fever virus, Ashibi, Vero; read-out: IC50
# [27] = Therapeutic index, ratio of TC50 for african green monkey Vero cells to IC50 for Yellow fever virus Ashibi; format: cell-based; conditions: read-out: TI
# dengue virus type 4 = experiment: Antiviral activity against Dengue virus type 4 infected in african green monkey Vero cells after 6 days by plaque reduction assay; format: functional, organism-based; conditions: Dengue virus, Vero, 144 h; read-out: IC50
# [28] = Therapeutic index, ratio of TC50 for african green monkey Vero cells to IC50 for Dengue type 4 virus; format: cell-based; conditions: read-out: TI
# Punta Toro virus = experiment: Antiviral activity against Punta Toro virus Adames infected in african green monkey Vero cells assessed as inhibition of virus-induced cytopathic effect by MTT assay; format: functional, organism-based
# Rift Valley fever virus = experiment: Antiviral activity against Rift Valley fever virus infected in african green monkey Vero cells after 6 days by plaque reduction assay; format: functional, organism-based; conditions: Rift Valley fever virus, Vero, 144 h; read-out: IC50
# [29] = Therapeutic index, ratio of TC50 for african green monkey Vero cells to IC50 for Rift valley fever virus; format: cell-based; conditions: read-out: TI
# [30] = tested on: Sandfly fever Sicilian virus; experiment: Antiviral activity against Sandfly fever sicilian virus infected in african green monkey Vero cells assessed as inhibition of virus-induced cytopathic effect by MTT assay; format: functional, organism-based; conditions: vero
# Mus musculus [31] = experiment: Toxicity in C57BL/6 mouse assessed as average day of death at 6 mg/kg/day, sc once daily for 7 days; format: organism-based; design: route subcutaneous; conditions: in vivo, 168 h
# Mus musculus [32] = experiment: Toxicity in C57BL/6 mouse assessed as mortality at 4 mg/kg/day, sc once daily for 7 days; format: organism-based; design: route subcutaneous; conditions: in vivo, 168 h
# [33] = tested on: Japanese encephalitis virus; experiment: Antiviral activity against Japanese encephalitis virus Beijing infected in low viral dose challenge C57BL/6 mouse model assessed as average day of death at 6 mg/kg/day, sc once daily for 7 days administered 1 day before infection measured after 28 days post infection; format: functional; conditions: route subcutaneous
structure (smiles),measurement,setting,value
O=C1N[C@H]2[C@H](O)[C@H](O)[C@@H](O)[C@H](O)[C@@H]2c2cc3c(c(O)c21)OCO3 [PANCRATISTATIN],Activity,[1],30%
same,Activity,[2],90%
same,Activity,[3],50%
same,Activity,[4],15.4 days
same,Activity,[5],16.3 days
same,Activity,[6],Active
same,Activity,Mus musculus [7],1.5
same,Activity,Mus musculus [8],1.3
same,Activity,Mus musculus [9],1.4
same,Activity,Mus musculus [10],1.8
same,Activity,Mus musculus [11],2.1
same,Activity,Mus musculus [12],2.8
same,Activity,Mus musculus [13],Non-toxic
same,Activity,Mus musculus [14],Non-toxic
same,Activity,Mus musculus [15],Non-toxic
same,Activity,[16],12.9 days
same,Activity,[17],11.8 days
same,Activity,[18],10.4 days
same,Activity,[19],12.3 days
same,Activity,[20],12.6 days
same,Activity,[21],12.6 days
same,Activity,[22],inactive
same,Activity,Mus musculus [23],Non-toxic
same,Activity,Mus musculus [24],Non-toxic
same,IC50,[25],0.022 µg/mL
same,selectivity ratio,[26],4.2
same,IC50,Yellow fever virus,0.016 µg/mL
same,selectivity ratio,[27],4.9
same,IC50,dengue virus type 4,0.063 µg/mL
same,selectivity ratio,[28],8
same,inhibition (INH),Punta Toro virus,25%
same,IC50,Rift Valley fever virus,0.16 µg/mL
same,selectivity ratio,[29],3.1
same,IC50,[30],Not Active
same,AD50,Mus musculus [31],2.7 days
same,Activity,Mus musculus [32],Not Active
same,Activity,[33],15 days
